According to US5753617A, “Peptide inhibitors of cellular adhesion” (Centocor, Inc., priority 1995, dated 1998):
Where a SMILES comes first, the peptide text is derived from it. Bridges are numbered along the chain shown (N, C = ends). [ ]: non-standard residue; d: D form. Phe(4-Cl) = N[C@@H](Cc1ccc(Cl)cc1)C(=O)O; NMeF = CN[C@@H](Cc1ccccc1)C(=O)O; dΔPro = O=C(O)[C@H]1C=CCN1

Each compound was assayed against T1, P-selectin (Homo sapiens, UniProt P16109) (assay: Inhibition of human neutrophil adhesion to purified P-selectin immobilized on plastic wells). Conditions: human neutrophils, purified human P-selectin.
T1 construct: P-selectin is isolated from human platelet lysates; from tissue; host or cells: human platelets (outdated platelet packs from a blood bank)
T1 sequence (P16109 42-830): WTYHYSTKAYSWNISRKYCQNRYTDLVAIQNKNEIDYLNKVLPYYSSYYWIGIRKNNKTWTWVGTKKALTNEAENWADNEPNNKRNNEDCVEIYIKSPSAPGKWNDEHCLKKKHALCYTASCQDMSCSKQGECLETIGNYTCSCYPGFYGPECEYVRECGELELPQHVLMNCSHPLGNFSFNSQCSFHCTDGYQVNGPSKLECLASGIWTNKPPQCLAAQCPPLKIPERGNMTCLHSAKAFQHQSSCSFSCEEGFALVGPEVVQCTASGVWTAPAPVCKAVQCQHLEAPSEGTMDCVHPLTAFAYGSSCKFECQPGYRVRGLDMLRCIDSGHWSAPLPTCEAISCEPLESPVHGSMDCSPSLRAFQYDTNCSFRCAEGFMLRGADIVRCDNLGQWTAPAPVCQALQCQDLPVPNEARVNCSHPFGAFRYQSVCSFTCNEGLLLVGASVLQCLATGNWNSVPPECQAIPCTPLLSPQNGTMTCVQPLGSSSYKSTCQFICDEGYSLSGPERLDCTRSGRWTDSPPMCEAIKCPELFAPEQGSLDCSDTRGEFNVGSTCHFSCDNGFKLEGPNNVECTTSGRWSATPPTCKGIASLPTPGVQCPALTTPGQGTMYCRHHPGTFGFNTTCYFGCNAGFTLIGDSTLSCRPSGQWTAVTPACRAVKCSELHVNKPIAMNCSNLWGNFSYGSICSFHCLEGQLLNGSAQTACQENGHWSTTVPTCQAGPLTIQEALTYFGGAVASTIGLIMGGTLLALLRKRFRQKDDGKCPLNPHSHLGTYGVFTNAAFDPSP
Assay type: cell-based
Source text: Peptides can be screened for their ability to inhibit adhesion to cells, for example, neutrophil adhesion to purified P-selectin immobilized on plastic wells, using the assay described by Geng, et al., Nature 343, 757-760 (1990). Human neutrophils are isolated from heparinized whole blood by density gradient centrifugation on Mono-Poly resolving media, Flow Laboratories. Neutrophil suspensions are greater than 98% pure and greater than 95% viable by trypan blue exclusion. For adhesion assays, neutrophils are suspended at a concentration of 2×10^6 cells/mL in Hanks' balanced salt solution containing 1.26 mM Ca^2+ and 0.81 mM Mg^2+ (HBSS, Gibco) with […] human serum albumin (HBSS/HSA). Adhesion assays are conducted in triplicate in 96-well microliter plates, Corning, incubated at 4° C. overnight with 50 microliters of various protein solutions. P-selectin is isolated from human platelet lysates by immunoaffinity chromatography on antibody S12-Sepharose™ and ion-exchange chromatography on a Mono-Q™ column (FLPC, Pharmacia Fine Chemicals), as follows. Outdated human platelet packs (100 units) obtained from a blood bank and stored at 4° C. are pooled, adjusted to 5 mM EDTA at pH 7.5, centrifuged at 4,000 rpm for 30 minutes in 1 liter bottles, then washed three times with 1 liter of 0.1M NaCl, 20 mM Tris pH 7.5 (TBS), 5 mM EDTA, 5 mM benzamidine. The pellets are then resuspended in a minimum amount of wash buffer and made 1 mM in DIFP, then frozen in 50 mL screwtop tubes at -80° C. The frozen platelets are thawed and resuspended in 50 mL TBS, 5 mM benzamidine, 5 mM EDTA pH 7.5, […]. The suspension is frozen and thawed two times in a dry ice-acetone bath using a 600 mL lyophilizing flask, then homogenized in a glass/teflon mortar and pestle and made 1 mM in DIFP. The NaCl concentration is adjusted to 0.5M with a stock solution of 4M NaCl. After stirring the suspension at 4° C., it is centrifuged in polycarbonate tubes at 33,000 rpm for 60 minutes at 4° C. The supernatant (0.5M NaCl wash) is removed and saved; this supernatant contains the soluble form of P-selectin. Care is taken not to remove the top part of the pellet with the supernatant. The pellets are then homogenized in extraction buffer (TBS, 5 mM benzamidine, 5 mM EDTA, pH 7.5, 100 μM leupeptin, 2% Triton X-100). After centrifugation at 19,500 rpm for 25 minutes at 4° C., the supernatant is removed. The extraction procedure is repeated with the pellet and the supernatant is combined with the first supernatant. The combined extracts, which contain the membrane form of P-selectin, are adjusted to 0.5M NaCl. The soluble fraction (0.5M NaCl wash) and the membrane extract (also adjusted to 0.5M NaCl) are absorbed with separate pools of the monoclonal antibody S12 (directed to P-selectin) previously couple […]) at 5 mg/mL for 2 hours at 4° C. After letting the resins settle, the supernatants are removed. The S12 Affigel containing bound GMP-140 is then loaded into a column and washed overnight at 4° C. with 400 mL of 0.5M NaCl, 20 mM Tris pH 7.5, 0.01% Lubrol PX. Bound P-selectin is eluted from the S12 Affigel with 100 mL of 80% ethylene glycol, 1 mM MES pH 6.0, 0.01% Lubrol PX. Peak fractions with absorbance at 280 nm are pooled. Eluates are dialyzed against TBS with 0.05% Lubrol, then applied to a Mono Q column (FPLC from Pharmacia). The concentrated protein is step eluted with 2M NaCl, 20 mM Tris pH 7.5 (plus 0.05% Lubrol PX for the membrane fraction). Peak fractions are dialyzed into TBS pH 7.5 (plus 0.05% Lubrol PX for the membrane fraction). P-selectin is plated at 5 micrograms/mL and the control proteins: human serum albumin (Alb), platelet glycoprotein IIb/IIIa (IIb), von Willebrand factor (vWF), fibrinogen (FIB), thrombomodulin (TM), gelatin (GEL) or human serum (HS), are added at 50 micrograms/mL. […]

**Q.** With `CC[C@H](C)[C@H](NC(=O)[C@H](CCCCN)NC(=O)[C@@H](N)CCCNC(=N)N)C(=O)NCC(=O)NCC(=O)N[C@H]1CCCCNC(=O)CC[C@@H](C(N)=O)NC(=O)[C@H](Cc2c[nH]c3ccccc23)NC(=O)[C@H]([C@@H](C)O)NC(=O)[C@H](Cc2c[nH]c3ccccc23)NC1=O` [SEQ ID NO:1, Arg-Lys-Ile-Gly-Gly-cyclo(Lys-Trp-Thr-Trp-Glu)-NH2] (H-RKIGGKWTWE-NH2; lactam 6-10) as the compound, how does the “biological activity / inhibiting neutrophil adhesion to P-selectin (result in words)” value read?
**A.** inactive

Same assay, conditions: inhibiting the binding of human neutrophils to P-selectin

**Q.** How did the IC50 turn out when `CC(C)[C@@H](NC(=O)[C@@H](Cc1c[nH]c2ccccc12)NC(=O)[C@H](NC(=O)[C@@H](Cc1ccc(O)cc1)NC(=O)[C@H]1CSSC[C@@H](NC(=O)[C@@H](CCCCN)NC(=O)[C@H](N)CCCNC(=N)N)C(=O)NCC(=O)N[C@@H](Cc2ccccc2)C(=O)N1)[C@H](C)O)C(N)=O` [(64)] (H-[dR][dK][dC]GF[dC][dY][dT][dW][dV]-NH2; disulfide 3-6) was run?
**A.** 46.2 µM

**Q.** For `CC[C@H](C)[C@@H]1NC(=O)CNC(=O)[C@@H](NC(=O)[C@@H](NC(=O)[C@H](CCCCN)NC(=O)[C@@H](N)CCCNC(=N)N)[C@@H](C)CC)CCC(=O)NCCCC[C@@H](C(=O)N[C@@H](Cc2c[nH]c3ccccc23)C(=O)N[C@H](C(N)=O)C(C)C)NC(=O)[C@H](Cc2c[nH]c3ccccc23)NC1=O` [(30)] (H-RKIEGIWKWV-NH2; lactam 4-8), which IC50 is on record?
**A.** 93 µM

**Q.** Which IC50 does the source give for `CC(C)[C@@H](NC(=O)[C@@H](Cc1c[nH]c2ccccc12)NC(=O)[C@H](NC(=O)[C@@H](Cc1c[nH]c2ccccc12)NC(=O)[C@H]1CSSC[C@@H](NC(=O)[C@@H](CCCCN)NC(=O)[C@H](N)CCCNC(=N)N)C(=O)NCC(=O)N2CC=C[C@@H]2C(=O)N1)[C@H](C)O)C(N)=O` [(36)] (H-[dR][dK][dC]G[dΔPro][dC][dW][dT][dW][dV]-NH2; disulfide 3-6) here?
**A.** 267 µM

**Q.** How did the IC50 turn out when `CC[C@@H](C)[C@@H](NC(=O)[C@@H](CCCCN)NC(=O)[C@H](N)CCCNC(=N)N)C(=O)NCC(=O)N[C@@H]1CSSC[C@H](C(=O)N[C@@H](C(=O)N[C@@H](C(N)=O)C(C)C)[C@H](C)O)NC(=O)[C@@H](Cc2c[nH]c3ccccc23)NC(=O)[C@@H]([C@H](C)CC)NC1=O` [(32)] (H-[dR][dK][dI]G[dC][dI][dW][dC][dT][dV]-NH2; disulfide 5-8) was run?
**A.** 23 µM

**Q.** With `CC(C)[C@@H](NC(=O)[C@@H](Cc1c[nH]c2ccccc12)NC(=O)[C@H](NC(=O)[C@@H](Cc1c[nH]c2ccccc12)NC(=O)[C@H]1CSSC[C@@H](NC(=O)[C@@H](CCCCN)NC(=O)[C@H](N)CCCNC(=N)N)C(=O)N2CCC[C@H]2C(=O)NCC(=O)N1)[C@H](C)O)C(N)=O` [(83)] (H-[dR][dK][dC]PG[dC][dW][dT][dW][dV]-NH2; disulfide 3-6) as the compound, how does the IC50 read?
**A.** 983 µM

**Q.** `CC(C)[C@@H](NC(=O)[C@@H](Cc1c[nH]c2ccccc12)NC(=O)[C@H](NC(=O)[C@@H](Cc1c[nH]c2ccccc12)NC(=O)[C@H]1CSSC[C@@H](NC(=O)[C@@H](CCCCN)NC(=O)[C@H](N)CCCNC(=N)N)C(=O)NCC(=O)N(C)[C@@H](Cc2ccccc2)C(=O)N1)[C@H](C)O)C(N)=O` [(72)] (H-[dR][dK][dC]G[NMeF][dC][dW][dT][dW][dV]-NH2; disulfide 3-6) was tested. Which IC50 did it give?
**A.** 37.7 µM

**Q.** For `CC(C)[C@@H](NC(=O)[C@@H](Cc1c[nH]c2ccccc12)NC(=O)[C@H](NC(=O)[C@@H](Cc1c[nH]c2ccccc12)NC(=O)[C@H]1CSSC[C@@H](NC(=O)[C@@H](CCCCN)NC(=O)[C@H](N)CCCNC(=N)N)C(=O)NCC(=O)N[C@@H](Cc2ccc(Cl)cc2)C(=O)N1)[C@H](C)O)C(N)=O` [(115)] (H-[dR][dK][dC]G[Phe(4-Cl)][dC][dW][dT][dW][dV]-NH2; disulfide 3-6), which IC50 is on record?
**A.** 1.5 µM

**Q.** Which IC50 does the source give for `CC(C)[C@@H](NC(=O)[C@@H](Cc1c[nH]c2ccccc12)NC(=O)[C@H](NC(=O)[C@@H](Cc1c[nH]c2ccccc12)NC(=O)[C@H]1CSSC[C@@H](NC(=O)[C@@H](CCCCN)NC(=O)[C@H](N)CCCNC(=N)N)C(=O)NCC(=O)N[C@@H](CCCNC(=N)N)C(=O)N1)[C@H](C)O)C(N)=O` [(40)] (H-[dR][dK][dC]GR[dC][dW][dT][dW][dV]-NH2; disulfide 3-6) here?
**A.** 324 µM

**Q.** `CC(C)[C@@H](NC(=O)[C@@H](CCC(N)=O)NC(=O)[C@H](NC(=O)[C@@H](Cc1ccc(O)cc1)NC(=O)[C@H]1CSSC[C@@H](NC(=O)[C@@H](CCCCN)NC(=O)[C@H](N)CCCNC(=N)N)C(=O)NCC(=O)N[C@@H](Cc2ccccc2)C(=O)N1)[C@H](C)O)C(N)=O` [(100)] (H-[dR][dK][dC]GF[dC][dY][dT][dQ][dV]-NH2; disulfide 3-6) was tested. Which IC50 did it give?
**A.** 88.3 µM

**Q.** `CC(C)[C@@H](NC(=O)[C@@H](Cc1ccc2ccccc2c1)NC(=O)[C@H](NC(=O)[C@@H](Cc1c[nH]c2ccccc12)NC(=O)[C@H]1CSC[C@@H](NC(=O)[C@@H](CCCCN)NC(=O)[C@H](N)CCCNC(=N)N)C(=O)NCC(=O)N[C@@H](Cc2ccccc2)C(=O)N1)[C@H](C)O)C(N)=O` [(78)] was tested. Which IC50 did it give?
**A.** 50.7 µM

**Q.** With `CC(C)[C@@H](NC(=O)[C@@H](Cc1c[nH]c2ccccc12)NC(=O)[C@H](NC(=O)[C@@H](Cc1c[nH]c2ccccc12)NC(=O)[C@H]1CSSC[C@@H](NC(=O)[C@@H](CCCCN)NC(=O)[C@H](N)CCCNC(=N)N)C(=O)NCC(=O)N2CCC[C@@H]2C(=O)N1)[C@H](C)O)C(N)=O` [(16)] (H-[dR][dK][dC]G[dP][dC][dW][dT][dW][dV]-NH2; disulfide 3-6) as the compound, how does the IC50 read?
**A.** 1 µM

**Q.** Which IC50 does the source give for `CC(C)[C@@H](NC(=O)[C@@H](Cc1c[nH]c2ccccc12)NC(=O)[C@H](NC(=O)[C@@H](Cc1c[nH]c2ccccc12)NC(=O)[C@H]1CSSC[C@@H](NC(=O)[C@@H](CCCCN)NC(=O)[C@H](N)CCCNC(=N)N)C(=O)N[C@H](CCC(N)=O)C(=O)N[C@@H](CCC(N)=O)C(=O)N1)[C@H](C)O)C(N)=O` [(114)] (H-[dR][dK][dC][dQ]Q[dC][dW][dT][dW][dV]-NH2; disulfide 3-6) here?
**A.** 12.1 µM

**Q.** `CC(C)[C@H](NC(=O)[C@H](Cc1c[nH]c2ccccc12)NC(=O)[C@@H](NC(=O)[C@H](Cc1c[nH]c2ccccc12)NC(=O)[C@@H]1CSSC[C@H](N)C(=O)N[C@@H](CCCNC(=N)N)C(=O)NCC(=O)NCC(=O)N1)[C@@H](C)O)C(N)=O` [(6)] (H-CRGGCWTWV-NH2; disulfide 1-5) was tested. Which IC50 did it give?
**A.** 54 µM
